{"source": "patent US20160297828A1", "about": "“SPIROCYCLIC COMPOUNDS CONTAINING SPIRO[INDOLYL-3,1'-PYRROLO[3,4-C]PYRROLE] CORE AND SULPHUR-CONTAINING AMINO ACID RESIDUES” (priority 2013, published 2016)", "type_in_all_cases": "in vivo", "key": {"[1]": {"test_system": "rats with intracerebral hemorrhage", "assay": "Lethality of rats with intracerebral hemorrhage of average severity", "procedure": "The chosen model allows to reproduce clinical pattern of […] and is adequate for clinical study of potential neuroprotective agents.\nAs comparators the following drugs were used: mexydol (“Mexydol” UC Pharmasoft, Russia), 100 mg/kg; citicoline (“Somazina” Ferrer International, SA, Spain), 250 mg/kg; aktovegin (“Aktovegin”, Nycomed, Austria), 16 mg/kg pyracetam (“Pyracetam” Darnitsa, Ukraine), 400 mg/kg. According to the latest clinical guidelines regarding the treatment of patients with CVA approved by the Ministry of Health of Ukraine (Order No. 602 dated 3 Aug. 2012), all these drugs are allowed to be included into schemes for intensive patients therapy with CVA as neuroprotective agents. They were used at recommended doses for preclinical studies (McGrow C. P. Experimental Cerebral Infarction Effects of Pentobarbital in Mongolian Gerbils/C. P. McGrow//Arch. Neurol.-1977.-Vol. 34, No. 6.-P. 334-336). Experimental therapy of acute cerebral ischemia with SI-86 compound and comparator started 1 hour after IUD once a day for 21 days. […] Reference drugs were injected intraperitoneally (ip). Rats of control pathology group were injected by autoblood and as therapy 0.9% NaCI solution was administered calculated for 2 ml/kg iv.\nPseudo-operated rats were exposed to all interventions (anesthesia, craniotomy) excluding autoblood administration that leveled traumatic impact of experimental conditions.\nEvaluation of the ability of animals to learn and memorize of aversive stimulus was examined in the test of conditioned response of passive avoidance (CRPA). The technique is based on innate rat instinct to limited shadowy space. The study in rats was conducted in two-compartment unit consisted of two sections—light and dark. An animal was arranged into light compartment, fixing latency time for entering into the dark compartment, wherein rat received current irritation and ran in the light compartment. CRPA retention was tested every other day under latency time change of rat entering into the dark compartment. Also the number of animals was noted not fully entered the dark chamber. Cerebroprotective efficiency criteria of studied compounds were also animal death term (days) and their mortality rate (in %).\nQuantitative data were processed using statistical StatPlus 2009 processing. The statistical significance of differences was assessed by Fisher's angular transformation (lethality outcome), also parametric t Student criterion were used in case of normal distribution of variation series, nonparametric W White criterion—in its absence."}, "[2]": {"test_system": "rats with intracerebral hemorrhage", "assay": "Neurological deficit (C. P. McGrow stroke-index scale) in rats with intracerebral hemorrhage", "conditions": "n = 15", "procedure": "Neuroprotective effect of 3,2′-spiro-pyrrolo-2-oxindole derivative (SI-86 compound) was studied on IUD model of moderate severity modeled under propofol anesthesia (60 mg/kg intraperitoneally (ip)) by autoblood administration into the brain internal capsule (stereotactic coordinates of the projection: H=7.0 mm, L=3.0 mm, A=1.5 mm from bregma) ([…]) (Method for reproduction of intracerebral hemorrhage in rats/O. K. Yarosh, S. V. Kyrychenko, S. P. Halimonchyk [et al.]//Circulation and hemostasis.-2005.-No. 1.-P. 77-81). The chosen model allows to reproduce clinical pattern of […] and is adequate for clinical study of potential neuroprotective agents.\nAs comparators the following drugs were used: mexydol (“Mexydol” UC Pharmasoft, Russia), 100 mg/kg; citicoline (“Somazina” Ferrer International, SA, Spain), 250 mg/kg; aktovegin (“Aktovegin”, Nycomed, Austria), 16 mg/kg pyracetam (“Pyracetam” Darnitsa, Ukraine), 400 mg/kg. According to the latest clinical guidelines regarding the treatment of patients with CVA approved by the Ministry of Health of Ukraine (Order No. 602 dated 3 Aug. 2012), all these drugs are allowed to be included into schemes for intensive patients therapy with CVA as neuroprotective agents. They were used at recommended doses for preclinical studies (McGrow C. P. Experimental Cerebral Infarction Effects of Pentobarbital in Mongolian Gerbils/C. P. McGrow//Arch. Neurol.-1977.-Vol. 34, No. 6.-P. 334-336). Experimental therapy of acute cerebral ischemia with SI-86 compound and comparator started 1 hour after IUD once a day for 21 days. The SI-86 derivative was investigated in conventionally effective dose of 10 mg/kg […] (iv)-dose that according to the results of our previous study provides maximum antihypoxic activity of SI-86 compound. Reference drugs were injected intraperitoneally (ip). Rats of control pathology group were injected by autoblood and as therapy 0.9% NaCI solution was administered calculated for 2 ml/kg […].\nNeurological deficit in animals with acute CVA respectively in acute (4th day) and recovery (21 st day) periods was measured on C. P. McGrow stroke-index scale. The state severity was determined by amount of relevant points: to 3 points-mild, 3 to 7 points-average, above 7 points-severe degree. Pareses, paralyses of limbs, tremors, circus movement, ptoses, lateral positions, ability of rats to be maintained at the core of 15 cm diameter, rotating at the rate of 3 rpm were noted. The animals were tested daily by displaying the amount of points:\none-sided semi-ptosis—0.5 points; one-sided ptosis—1 point; tremor—0.5 points; circus movements—0.5 points; pareses of limbs (for each limb)—1 point; paralyses of limbs (for each limb)—2 points; lateral position—3 points; disability to maintain on rotating rod during 4 minutes—3 points."}, "[3]": {"test_system": "neuron-specific enolase (NSE)", "assay": "Neuron-specific enolase (NSE) activity in rats with intracerebral hemorrhage (ELISA)", "conditions": "for NSE activity (dynamics of neurodestructive changes): acute cerebral hemorrhage, n = 7; for enzyme activity decreased in relation to the control pathology group / efficiency in reducing NSE better than citocoline: hemorrhage", "procedure": "The derivative of 3,2′-spiro-pyrrolo-2-oxindole was investigated in conventionally effective dose of 10 mg/kg […] (iv)—dose that according to the results of our previous studies provided maximum antihypoxic activity of SI-86 compound. Reference drugs were injected intraperitoneally (ip). […] Autoblood was injected to rats with control pathology and 0.9% NaCI solution was administered as therapy calculated for 2 ml/kg ip.\nPsevdooperated rats were exposed to all interventions (anesthesia, craniotomy) with the exception of autoblood administration that leveled traumatic impact of experimental conditions.\nTo determine neuron-specific enolase, the specific marker of cerebral ischemia,—for corresponding period (4 th and 21 st day of CVA) in rats, blood was sampled by sagittal sinus puncture (0.2-0.4 ml). NSE activity was measured by ELISA using a set NSE EIA KIT (DAI, USA) on the instrument of the company “Hipson” (Czech Republic)."}, "[4]": {"conditions": "12 h, SI-86 10 mg/kg iv, mexydol 100, citocoline 250, actovegin 16, pyracetam 400 mg/kg"}}, "note": "Values joined by “and” are separate entries in the source; they are usually repeats but may differ in a detail not shown here. Equal entries are not always repeated. Marks after values point to notes of the source that are not given here."}
{"smiles": "CSCC[C@@H]1N[C@@]2(C(=O)Nc3ccccc32)[C@@H]2C(=O)N(c3ccc(C)cc3)C(=O)[C@H]12", "note": "[SI-86, 5′-(4-Methylphenyl)-3′-[2-(methylthio)ethyl]-3a′,6a′-dihydro-2′H-spiro[indole-3,1′-pyrrolo[3,4-c]pyrrol]-2,4′,6′(1H,3′H,5′H)-trione]", "values": [{"measurement": "Lethality, %", "setting": "[1]; [4]", "result": "0/0%"}, {"measurement": "Lethality, abs.", "setting": "[1]; [4]", "result": "0/0%"}, {"measurement": "Lethality, abs.", "setting": "[1]; 24 h, same doses", "result": "0/0%*^#"}, {"measurement": "cerebroprotective protection", "setting": "[1]; 24 h observation, SI-86 10, mexydol 100, citicoline 250 mg/kg", "result": 100, "unit": "%"}, {"measurement": "Lethality, abs.", "setting": "[1]; 48 h, same doses", "result": "0/0%*^#&•$"}, {"measurement": "Lethality, %", "setting": "[1]; 72 h, same doses", "result": 5.9, "unit": "%"}, {"measurement": "Lethality, abs.", "setting": "[1]; 72 h, same doses", "result": 2}, {"measurement": "Lethality, %", "setting": "[1]; 96 h, same doses", "result": 11.8, "unit": "%"}, {"measurement": "Lethality, abs.", "setting": "[1]; 96 h, same doses", "result": 4}, {"measurement": "neurological deficit, average point under C. P. McGrow scale", "setting": "[2]; day 4, SI-86 10 mg/kg iv, mexydol 100, citocoline 250, actovegin 16, pyracetam 400 mg/kg ip", "result": "4.1 points and 4.10 ± 0.32°*^#•$ points"}, {"measurement": "neurological deficit, average point under C. P. McGrow scale", "setting": "[2]; day 21, same doses", "result": "3.1 points and 3.10 ± 0.33°*^#&$ points"}, {"measurement": "NSE activity (dynamics of neurodestructive changes)", "setting": "[3]; day 4, SI-86 10 mg/kg iv, citocoline 250 mg/kg ip", "result": "1.065 ± 0.019*^#•"}, {"measurement": "NSE activity (dynamics of neurodestructive changes)", "setting": "[3]; day 21, same doses", "result": "0.260 ± 0.014*^#•"}, {"measurement": "enzyme activity decreased in relation to the control pathology group", "setting": "[3]; 96 hours", "result": 2.6, "unit": "times"}, {"measurement": "enzyme activity decreased in relation to the control pathology group", "setting": "[3]; 21 days", "result": 3.6, "unit": "times"}, {"measurement": "efficiency in reducing NSE better than citocoline", "setting": "[3]; acute period", "result": 17.6, "unit": "%"}, {"measurement": "efficiency in reducing NSE better than citocoline", "setting": "[3]; recovery period", "result": 15.9, "unit": "%"}]}
